Patent publication US20240225984A9, “TOPICAL COMPOSITION FOR REGULATION OF INFLAMMATION AND SKIN REGENERATION” (Glycopep Therapeutics, S.A.S. de C.V., priority 2022, published 2024)

Columns and labels:
IL-1β = test: IL-1β/GAPDH mRNA expression in HaCaT keratinocytes with or without DNCB; type: cell-based, human; settings: without DNCB; FIG. 4
Description: To verify that the composition of the present invention regulates the expression of genes associated with inflammation, the expression of IL-1β/GAPDH and Cox-2/GAPDH mRNA was quantified. When keratinocytes are exposed to IL-1β, they increase the levels of messenger RNA of other cytokines such as MIP-2, TNF-α, IL-10 and IL-1α. In this sense, the regulation of IL-1β is beneficial during inflammatory processes in the skin. The regulation of COX-2 is beneficial during inflammatory processes and wound regeneration.
Cells were worked between passages 3 to 7.
They were seeded in 6-well plates at a density of […] and incubated for 24 h at close to 20% confluency. After three days, 75% confluences were achieved.

[1] = Viability of HaCaT human keratinocytes (mitochondrial metabolic activity, tetrazolium salts / MTT); settings: HaCaT cells (immortalized keratinocytes)
Description: (§1) We worked with HaCaT cells, an immortalized human keratinocyte cell line, which were cultured in DMEM medium supplemented (1 g/L glucose, 4 mM L-alanyl-glutamine, 10% inactivated fetal bovine serum, 50 IU/penicillin, 50 μg/ml streptomycin) at 37° C. and 5% CO2. Cells were worked between passages 3 to 7.
(§2) They were treated with 2.5 and 5% sialylated GMP, alone or combined with 0.5 and 1% panthenol for 0, 1, 2, 24 and 48 h. To define the percentage of viability of the cells with the different treatments at each of the times tested, cells not treated with either sialidinated GMP or panthenol were used as a control condition.
(§3) Once the time was up, cell viability was determined by measuring mitochondrial metabolic activity by spectrophotometric techniques and using tetrazolium salts.

Description for HaCaT cells: as §1, §2, §3

In the case of glycomacropeptide [GMP], the “expression level of IL-1β mRNA in relation to control cells” value (IL-1β) was “decreased” and the cell viability (HaCaT cells) was “greater than 50%”.
Compound CC(C)(CO)[C@@H](O)C(=O)NCCCO [panthenol, Panthenol] has a cytotoxicity at 1 % [1] of 30% and a cytotoxicity at 2 h, 0.5 % [1] of 30%.
